{"source": "the supplement of paper PMC10307832", "assay_in_all_cases": "relative viability (nuclei count vs DMSO), 5 days (fraction); higher = more cells survive", "key": {"[1]": {"tested_on": "ABC-1", "procedure,_shortened": "(§1)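 Lung cancer cell lines in 1536-well plates got either a single drug or a fixed anchor-drug dose together with five library-drug doses (not always all listed) in √10 steps, by pin tool, on the day after seeding. Nuclei were counted after 5 days, and relative viability is the treated-to-vehicle ratio of nuclei counts. Values are medians of duplicate plates.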"}, "[2]": {"tested_on": "CAL-12T", "procedure,_shortened": "as §1"}, "[3]": {"tested_on": "ChaGo-K-1", "procedure,_shortened": "as §1"}, "[4]": {"tested_on": "HCC-366", "procedure,_shortened": "as §1"}, "[5]": {"tested_on": "HCC-78", "procedure,_shortened": "as §1"}, "[6]": {"tested_on": "LC-2-ad", "procedure,_shortened": "as §1"}, "[7]": {"tested_on": "LOU-NH91", "procedure,_shortened": "as §1"}, "[8]": {"tested_on": "LU99A", "procedure,_shortened": "as §1"}, "[9]": {"tested_on": "NCI-H1395", "procedure,_shortened": "as §1"}, "[10]": {"tested_on": "NCI-H1651", "procedure,_shortened": "as §1"}, "[11]": {"tested_on": "NCI-H1755", "procedure,_shortened": "as §1"}, "[12]": {"tested_on": "NCI-H1793", "procedure,_shortened": "as §1"}, "[13]": {"tested_on": "NCI-H1944", "procedure,_shortened": "as §1"}, "[14]": {"tested_on": "NCI-H2170", "procedure,_shortened": "as §1"}, "[15]": {"tested_on": "NCI-H2228", "procedure,_shortened": "as §1"}, "[16]": {"tested_on": "NCI-H2405", "procedure,_shortened": "as §1"}, "[17]": {"tested_on": "NCI-H3122", "procedure,_shortened": "as §1"}, "[18]": {"tested_on": "NCI-H460", "procedure,_shortened": "as §1"}, "[19]": {"tested_on": "PC-3 [JPC-3]", "procedure,_shortened": "as §1"}, "[20]": {"tested_on": "RERF-LC-KJ", "procedure,_shortened": "as §1"}, "[21]": {"tested_on": "UMC-11", "procedure,_shortened": "as §1"}}}
{"smiles": "CC(=O)O[C@@]12CO[C@@H]1C[C@H](O)[C@@]1(C)C(=O)[C@H](O)C3=C(C)[C@@H](OC(=O)[C@H](O)[C@@H](NC(=O)OC(C)(C)C)c4ccccc4)C[C@@](O)([C@@H](OC(=O)c4ccccc4)[C@H]21)C3(C)C", "note": "[Docetaxel] + Cc1cc(Nc2cc(N3CCN(C)CC3)nc(Sc3ccc(NC(=O)C4CC4)cc3)n2)n[nH]1 [Tozasertib] (partner 0.1 µM)", "values": [{"measurement": "relative viability", "setting": "[1]; first compound 0.0002 µM", "result": 0.15}, {"measurement": "relative viability", "setting": "[1]; first compound 0.000632 µM", "result": 0.191}, {"measurement": "relative viability", "setting": "[1]; first compound 0.002 µM", "result": 0.195}, {"measurement": "relative viability", "setting": "[1]; first compound 0.006325 µM", "result": 0.159}, {"measurement": "relative viability", "setting": "[1]; first compound 0.02 µM", "result": 0.218}, {"measurement": "relative viability", "setting": "[2]; first compound 0.0002 µM", "result": 0.319}, {"measurement": "relative viability", "setting": "[2]; first compound 0.000632 µM", "result": 0.32}, {"measurement": "relative viability", "setting": "[2]; first compound 0.002 µM", "result": 0.227}, {"measurement": "relative viability", "setting": "[2]; first compound 0.006325 µM", "result": 0.251}, {"measurement": "relative viability", "setting": "[2]; first compound 0.02 µM", "result": 0.142}, {"measurement": "relative viability", "setting": "[3]; first compound 0.0002 µM", "result": 0.218}, {"measurement": "relative viability", "setting": "[3]; first compound 0.002 µM", "result": 0.201}, {"measurement": "relative viability", "setting": "[3]; first compound 0.006325 µM", "result": 0.199}, {"measurement": "relative viability", "setting": "[3]; first compound 0.02 µM", "result": 0.185}, {"measurement": "relative viability", "setting": "[4]; first compound 0.0002 µM", "result": 0.097}, {"measurement": "relative viability", "setting": "[4]; first compound 0.000632 µM", "result": 0.0628}, {"measurement": "relative viability", "setting": "[4]; first compound 0.002 µM", "result": 0.0488}, {"measurement": "relative viability", "setting": "[4]; first compound 0.006325 µM", "result": 0.0475}, {"measurement": "relative viability", "setting": "[4]; first compound 0.02 µM", "result": 0.0231}, {"measurement": "relative viability", "setting": "[5]; first compound 0.0002 µM", "result": 0.386}, {"measurement": "relative viability", "setting": "[5]; first compound 0.000632 µM", "result": 0.436}, {"measurement": "relative viability", "setting": "[5]; first compound 0.002 µM", "result": 0.278}, {"measurement": "relative viability", "setting": "[5]; first compound 0.006325 µM", "result": 0.344}, {"measurement": "relative viability", "setting": "[5]; first compound 0.02 µM", "result": 0.368}, {"measurement": "relative viability", "setting": "[6]; first compound 0.0002 µM", "result": 0.487}, {"measurement": "relative viability", "setting": "[6]; first compound 0.000632 µM", "result": 0.395}, {"measurement": "relative viability", "setting": "[6]; first compound 0.002 µM", "result": 0.302}, {"measurement": "relative viability", "setting": "[6]; first compound 0.006325 µM", "result": 0.37}, {"measurement": "relative viability", "setting": "[7]; first compound 0.0002 µM", "result": 0.657}, {"measurement": "relative viability", "setting": "[7]; first compound 0.000632 µM", "result": 0.574}, {"measurement": "relative viability", "setting": "[7]; first compound 0.002 µM", "result": 0.39}, {"measurement": "relative viability", "setting": "[7]; first compound 0.006325 µM", "result": 0.383}, {"measurement": "relative viability", "setting": "[7]; first compound 0.02 µM", "result": 0.247}, {"measurement": "relative viability", "setting": "[8]; first compound 0.0002 µM", "result": 0.262}, {"measurement": "relative viability", "setting": "[8]; first compound 0.000632 µM", "result": 0.289}, {"measurement": "relative viability", "setting": "[8]; first compound 0.002 µM", "result": 0.236}, {"measurement": "relative viability", "setting": "[8]; first compound 0.006325 µM", "result": 0.307}, {"measurement": "relative viability", "setting": "[8]; first compound 0.02 µM", "result": 0.211}, {"measurement": "relative viability", "setting": "[9]; first compound 0.0002 µM", "result": 0.698}, {"measurement": "relative viability", "setting": "[9]; first compound 0.000632 µM", "result": 0.753}, {"measurement": "relative viability", "setting": "[9]; first compound 0.002 µM", "result": 0.59}, {"measurement": "relative viability", "setting": "[9]; first compound 0.006325 µM", "result": 0.372}, {"measurement": "relative viability", "setting": "[9]; first compound 0.02 µM", "result": 0.325}, {"measurement": "relative viability", "setting": "[10]; first compound 0.0002 µM", "result": 0.716}, {"measurement": "relative viability", "setting": "[10]; first compound 0.000632 µM", "result": 0.717}, {"measurement": "relative viability", "setting": "[10]; first compound 0.002 µM", "result": 0.187}, {"measurement": "relative viability", "setting": "[10]; first compound 0.006325 µM", "result": 0.189}, {"measurement": "relative viability", "setting": "[11]; first compound 0.0002 µM", "result": 0.62}, {"measurement": "relative viability", "setting": "[11]; first compound 0.000632 µM", "result": 0.609}, {"measurement": "relative viability", "setting": "[11]; first compound 0.002 µM", "result": 0.46}, {"measurement": "relative viability", "setting": "[11]; first compound 0.006325 µM", "result": 0.335}, {"measurement": "relative viability", "setting": "[11]; first compound 0.02 µM", "result": 0.373}, {"measurement": "relative viability", "setting": "[12]; first compound 0.0002 µM", "result": 0.372}, {"measurement": "relative viability", "setting": "[12]; first compound 0.000632 µM", "result": 0.285}, {"measurement": "relative viability", "setting": "[12]; first compound 0.002 µM", "result": 0.197}, {"measurement": "relative viability", "setting": "[12]; first compound 0.006325 µM", "result": 0.195}, {"measurement": "relative viability", "setting": "[12]; first compound 0.02 µM", "result": 0.136}, {"measurement": "relative viability", "setting": "[13]; first compound 0.0002 µM", "result": 0.23}, {"measurement": "relative viability", "setting": "[13]; first compound 0.000632 µM", "result": 0.223}, {"measurement": "relative viability", "setting": "[13]; first compound 0.002 µM", "result": 0.235}, {"measurement": "relative viability", "setting": "[13]; first compound 0.006325 µM", "result": 0.194}, {"measurement": "relative viability", "setting": "[13]; first compound 0.02 µM", "result": 0.15}, {"measurement": "relative viability", "setting": "[14]; first compound 0.0002 µM", "result": 0.615}, {"measurement": "relative viability", "setting": "[14]; first compound 0.000632 µM", "result": 0.581}, {"measurement": "relative viability", "setting": "[14]; first compound 0.002 µM", "result": 0.43}, {"measurement": "relative viability", "setting": "[14]; first compound 0.006325 µM", "result": 0.222}, {"measurement": "relative viability", "setting": "[14]; first compound 0.02 µM", "result": 0.175}, {"measurement": "relative viability", "setting": "[15]; first compound 0.0002 µM", "result": 0.242}, {"measurement": "relative viability", "setting": "[15]; first compound 0.000632 µM", "result": 0.169}, {"measurement": "relative viability", "setting": "[15]; first compound 0.002 µM", "result": 0.127}, {"measurement": "relative viability", "setting": "[15]; first compound 0.006325 µM", "result": 0.168}, {"measurement": "relative viability", "setting": "[15]; first compound 0.02 µM", "result": 0.121}, {"measurement": "relative viability", "setting": "[16]; first compound 0.0002 µM", "result": 0.699}, {"measurement": "relative viability", "setting": "[16]; first compound 0.000632 µM", "result": 0.556}, {"measurement": "relative viability", "setting": "[16]; first compound 0.002 µM", "result": 0.461}, {"measurement": "relative viability", "setting": "[16]; first compound 0.006325 µM", "result": 0.361}, {"measurement": "relative viability", "setting": "[16]; first compound 0.02 µM", "result": 0.278}, {"measurement": "relative viability", "setting": "[17]; first compound 0.0002 µM", "result": 0.339}, {"measurement": "relative viability", "setting": "[17]; first compound 0.000632 µM", "result": 0.278}, {"measurement": "relative viability", "setting": "[17]; first compound 0.002 µM", "result": 0.217}, {"measurement": "relative viability", "setting": "[17]; first compound 0.006325 µM", "result": 0.179}, {"measurement": "relative viability", "setting": "[17]; first compound 0.02 µM", "result": 0.122}, {"measurement": "relative viability", "setting": "[18]; first compound 0.0002 µM", "result": 0.358}, {"measurement": "relative viability", "setting": "[18]; first compound 0.000632 µM", "result": 0.368}, {"measurement": "relative viability", "setting": "[18]; first compound 0.002 µM", "result": 0.0923}, {"measurement": "relative viability", "setting": "[18]; first compound 0.006325 µM", "result": 0.0604}, {"measurement": "relative viability", "setting": "[18]; first compound 0.02 µM", "result": 0.0207}, {"measurement": "relative viability", "setting": "[19]; first compound 0.0002 µM", "result": 0.851}, {"measurement": "relative viability", "setting": "[19]; first compound 0.000632 µM", "result": 0.78}, {"measurement": "relative viability", "setting": "[19]; first compound 0.002 µM", "result": 0.426}, {"measurement": "relative viability", "setting": "[19]; first compound 0.006325 µM", "result": 0.209}, {"measurement": "relative viability", "setting": "[19]; first compound 0.02 µM", "result": 0.118}, {"measurement": "relative viability", "setting": "[20]; first compound 0.0002 µM", "result": 0.525}, {"measurement": "relative viability", "setting": "[20]; first compound 0.000632 µM", "result": 0.403}, {"measurement": "relative viability", "setting": "[20]; first compound 0.002 µM", "result": 0.279}, {"measurement": "relative viability", "setting": "[20]; first compound 0.006325 µM", "result": 0.278}, {"measurement": "relative viability", "setting": "[20]; first compound 0.02 µM", "result": 0.197}, {"measurement": "relative viability", "setting": "[21]; first compound 0.0002 µM", "result": 0.193}, {"measurement": "relative viability", "setting": "[21]; first compound 0.000632 µM", "result": 0.193}, {"measurement": "relative viability", "setting": "[21]; first compound 0.002 µM", "result": 0.218}, {"measurement": "relative viability", "setting": "[21]; first compound 0.006325 µM", "result": 0.227}, {"measurement": "relative viability", "setting": "[21]; first compound 0.02 µM", "result": 0.217}]}
